{"source": "paper PMC2377083", "about": "“IDN 5390: an oral taxane candidate for protracted treatment schedules” (British Journal of Cancer, 2003)", "key": {"tubulin": {"test_system": "tubulin", "assay": "Tubulin polymerisation assay in IGROV-1/Pt1 cells", "format": "cell-based, human", "settings": "24 h", "method": "For tubulin polymerisation assay, IGROV-1/Pt1 cells were treated with PTX or IDN 5390 at the indicated concentrations for 24 h. Cells were then processed as previously described ([Cassinelli et al, 2001]) in order to separate cellular fractions containing soluble cytosolic or polymerised cytoskeletal tubulin. Samples were electrophoresed by sodium dodecyl sulphate (SDS)–PAGE (10% resolving gel and 3% stacking gel) and blotted onto nitrocellulose membranes. The distribution of tubulin was analysed by immunoblotting, using a rabbit polyclonal antitubulin antibody (BioMakor, Revohot, Israel)."}, "bFGF": {"test_system": "bFGF", "assay": "bFGF expression in GBM cells, immunoblotting", "settings": "72 h at IC80: IDN 5390 40, PTX 17 ng ml^−1"}, "[1]": {"test_system": "MX-1 mammary tumour xenograft", "settings": "for LCK (1 g) / Max BWL (%) / Tox/Tot / Max TWI%: qd × 4–5/w × 3w"}, "[2]": {"test_system": "A2780/DDP ovarian tumour xenograft", "assay": "Antitumour activity on A2780/DDP xenograft", "settings": "for Tox/Tot: toxic deaths/total mice", "quoted_text": "(§2) All the experiments were carried out using female athymic nude CD-1 mice, 8–11 weeks old (Charles River, Calco, Italy). The mice were maintained in laminar flow rooms with constant temperature and humidity.\n(§3) Taxanes were dissolved by adding absolute ethanol and Cremophor ELP (both 5% of the final volume), in that sequence, on a magnetic stirrer. […] After dilution, the drug solutions were always kept on ice. […] (Milano, Italy) and, just before use, it was diluted, by slowly adding 0.9% NaCl and occasionally stirring the solution (final Polysorbate 80: 10%, v v^−1). […] When higher doses were to be given, larger volumes were injected.\n(§4) Tumour lines were maintained in vivo by successive s.c. transplants of tumour fragments in animal flanks.\n(§5) For chemotherapy experiments, tumour fragments (about 2 × 2 × 2 mm), obtained from tumour lines, were implanted s.c. Each control or drug-treated group included five or six mice bearing bilateral s.c. tumours. Tumours were implanted on day 0, and tumour growth was followed by biweekly measurements of tumour diameters with a vernier caliper. Tumour weight (TW) was calculated according to the formula: TW (mg)=tumour volume (mm^3)=d^2 × D/2, where d and D are the shortest and the longest diameter, respectively. Different treatment routes (i.v., s.c. or p.o.) and schedules (daily or intermittent) were investigated. […] Control mice were injected with the solvent solution.\n(§6) Experimental groups were eliminated when mean TW was about 1.5±0.5 g, or after 100 days.\n(§7) For statistical analysis, tumour weights in different groups of treated mice were compared on day of TWI% evaluation, by Student's t-test (two-tailed). P⩽0.05 was considered significant.\n(§8) The tolerability of the compound was assessed in tumour-bearing mice as follows: (a) lethal toxicity, that is, any death in treated mice without or with small (⩽300 mg) tumours, or occurring before any control death; (b) body weight loss % (BWL%)=100–(BW on day x/BW on day 1 × 100), where x represents a day after or during the treatment period. The maximal BWL values are reported; and (c) vesicant toxicity defined as the appearance of ulcers and/or inflammation at the injection site where the drugs were delivered s.c."}, "[3]": {"settings": "mouse, in vivo"}, "human tumour cell lines": {"test_system": "human tumour cell lines", "format": "cell-based", "method": "(§1) Drugs were dissolved in DMSO and freshly diluted in medium before use. The antiproliferative activity was evaluated on A2780 (human ovarian carcinoma) and its derived drug-resistant cell lines (A2780/DX, A2780/DDP), IGROV-1/Pt1 (human ovarian carcinoma), GBM (human glioblastoma) and MX-1 (human mammary carcinoma). All cell lines, except MX-1, were maintained in RPMI 1640 (Bio-Whittaker, Verviers, Belgium) supplemented with 10% fetal calf serum (Life Technologies, Gaithersburg, MD, USA). MX-1 cells were maintained in McCoy's medium (Life Technologies, Gaithersburg, MD, USA) supplemented with 10% fetal calf serum. For experiments, all cell lines were seeded into six-well plates in duplicate and treated, 24 or 72 h (only MX-1 cells) after seeding, with solvent or different concentrations of taxanes. Adherent cells were counted 72 h after the beginning of treatment, by a cell counter (Coulter Electronics, Luton, UK) or detected by the Sulforhodamine B colorimetric assay (only GBM cells). The IC50 was defined as the drug concentration causing a 50% decrease in cell number over that of untreated controls."}, "A2780/DX cells": {"test_system": "A2780/DX cells", "assay": "Antiproliferative activity, A2780/DX", "format": "cell-based", "settings": "Homo sapiens, 72 h treatment, cell counting, MDR phenotype mediated by P-gp", "method": "as §1"}, "VEGF": {"test_system": "VEGF", "assay": "VEGF expression in GBM cells, immunoblotting", "settings": "72 h at IC80: IDN 5390 40, PTX 17 ng ml^−1"}, "[4]": {"test_system": "IGROV-1/Pt (human ovarian carcinoma)", "assay": "Antiproliferative activity, IGROV-1/Pt", "format": "cell-based", "method": "as §1"}, "[5]": {"test_system": "A2780 (human ovarian carcinoma)", "assay": "Antiproliferative activity, A2780", "format": "cell-based", "settings": "72 h treatment, cell counting, mean±s.d., three experiments", "method": "as §1"}, "[6]": {"test_system": "MX-1 (human mammary carcinoma)", "assay": "Antiproliferative activity, MX-1", "format": "cell-based", "settings": "72 h treatment, cell counting, mean±s.d., three experiments", "method": "as §1"}, "[7]": {"test_system": "IGROV-1 PTX-resistant ovarian tumour xenograft", "assay": "Antitumour activity on IGROV-1 xenograft", "settings": "p.o., qd × 5/w × 3w, 120 mg kg^−1", "quoted_text": "as §2, §3, §4, §5, §6, §7, §8"}, "GBM (human glioblastoma)": {"test_system": "GBM (human glioblastoma)", "assay": "Antiproliferative activity, GBM (Sulforhodamine B)", "format": "cell-based", "method": "as §1"}, "in vivo": {"assay": "in vivo", "settings": "female, athymic nude CD-1, mouse, sc"}, "[8]": {"test_system": "INT.ACP/PTX PTX-resistant ovarian tumour xenograft", "assay": "Antitumour activity on INT.ACP/PTX xenograft", "settings": "p.o.", "quoted_text": "as §2, §3, §4, §5, §6, §7, §8"}, "[9]": {"settings": "2 × 90 mg kg^−1 p.o., up to 5 weeks, 50 treatments"}, "[10]": {"settings": "s.c., qd × 5/w × 2w, 120 mg kg^−1"}, "[11]": {"settings": "qd × 5/w × 2w, 2 × 120 mg kg^−1"}}, "note": "“And” between values parts separate entries of the source, which are not always exact repeats. Equal values may be shown once. Read-outs that look alike come from different tables or passages of the source.", "data": [{"smiles": "CC(=O)O[C@@]1([C@@H]2/C(C)=C(/O)C(=O)C3=C(C)[C@@H](OC(=O)[C@H](O)[C@H](CC(C)C)NC(=O)OC(C)(C)C)C[C@@](O)([C@H]2OC(=O)c2ccccc2)C3(C)C)CO[C@@H]1CCO", "note": "[IDN 5390, 13-(N-Boc-β-isobutylisoserinyl)-10β-dehydro-C-seco-10-deacetylbaccatin III]", "values": [{"measurement": "tubulin polymerisation", "setting": "tubulin; equitoxic concentrations (IC80): IDN 5390 300, PTX 100 ng ml^−1", "value": "comparable extent of tubulin polymerisation"}, {"measurement": "tubulin polymerisation", "setting": "tubulin; same concentration (100 ng ml^−1), vs PTX", "value": "less effective than the parent drug"}, {"measurement": "bFGF expression", "setting": "bFGF", "value": "downregulated"}, {"measurement": "antitumour efficacy", "setting": "[1]; 30 mg kg^−1 p.o. twice a day, start when tumours averaged 100 mg", "value": "not very effective"}, {"measurement": "tumours exhibiting CR at the end of the experiment", "setting": "[1]; 2 × 90 mg kg^−1 p.o., 5 weeks, end of the experiment (100 days)", "value": "six out of 10"}, {"measurement": "lethal toxicity", "setting": "[1]; [9]", "value": "no lethal toxicity"}, {"measurement": "max BWL", "setting": "[1]; [9]", "value": 11, "unit": "%"}, {"measurement": "LCK (1 g)", "setting": "[1]; p.o., 120 mg kg^−1, from day 1", "value": 1.1}, {"measurement": "Max BWL (%)", "setting": "[1]; p.o., 120 mg kg^−1, from day 1", "value": 5, "unit": "%"}, {"measurement": "Tox/Tot", "setting": "[1]; p.o., 120 mg kg^−1, from day 1", "value": "0/5"}, {"measurement": "Max TWI%", "setting": "[1]; p.o., 120 mg kg^−1, from day 1, day 25", "value": "82(25) %"}, {"measurement": "TWI", "setting": "[1]; s.c., all doses, after 3 weeks of treatment", "value": "> 80", "unit": "%"}, {"measurement": "LCK (1 g)", "setting": "[1]; s.c., 60 mg kg^−1, from day 1", "value": 1.4}, {"measurement": "Max BWL (%)", "setting": "[1]; s.c., 60 mg kg^−1, from day 1", "value": 3, "unit": "%"}, {"measurement": "Tox/Tot", "setting": "[1]; s.c., 60 mg kg^−1, from day 1", "value": "0/3"}, {"measurement": "Max TWI%", "setting": "[1]; s.c., 60 mg kg^−1, from day 1, day 29", "value": "83(29) %"}, {"measurement": "LCK (1 g)", "setting": "[1]; s.c., 90 mg kg^−1, from day 1", "value": 2.7}, {"measurement": "Max BWL (%)", "setting": "[1]; s.c., 90 mg kg^−1, from day 1", "value": 3.5, "unit": "%"}, {"measurement": "Tox/Tot", "setting": "[1]; s.c., 90 mg kg^−1, from day 1", "value": "0/5"}, {"measurement": "Max TWI%", "setting": "[1]; s.c., 90 mg kg^−1, from day 1, day 29", "value": "97(29) %"}, {"measurement": "LCK (1 g)", "setting": "[1]; s.c., 120 mg kg^−1, from day 1", "value": "1.7–3.1"}, {"measurement": "Max BWL (%)", "setting": "[1]; s.c., 120 mg kg^−1, from day 1", "value": "6–7.5%"}, {"measurement": "Tox/Tot", "setting": "[1]; s.c., 120 mg kg^−1, from day 1", "value": "1/10"}, {"measurement": "Max TWI%", "setting": "[1]; s.c., 120 mg kg^−1, from day 1, day 25, P<0.05 vs p.o.", "value": "93–96 ^*(25) %"}, {"measurement": "LCK (1 g)", "setting": "[2]; i.v., q4d × 4, 90 mg kg^−1", "value": 0.2}, {"measurement": "Max BWL (%)", "setting": "[2]; i.v., q4d × 4, 90 mg kg^−1", "value": 0, "unit": "%"}, {"measurement": "Max TWI%", "setting": "[2]; i.v., q4d × 4, 90 mg kg^−1, day 18, start at tumour weight about 100 mg", "value": "17 (18) %"}, {"measurement": "Tox/Tot", "setting": "[2]; i.v., q4d × 4, 90 mg kg^−1", "value": "0/5"}, {"measurement": "LCK (1 g)", "setting": "[2]; i.v., q4d × 4, 120 mg kg^−1", "value": 0.3}, {"measurement": "Max BWL (%)", "setting": "[2]; i.v., q4d × 4, 120 mg kg^−1", "value": 3, "unit": "%"}, {"measurement": "Max TWI%", "setting": "[2]; i.v., q4d × 4, 120 mg kg^−1, day 18", "value": "46 (18) %"}, {"measurement": "Tox/Tot", "setting": "[2]; i.v., q4d × 4, 120 mg kg^−1", "value": "0/5"}, {"measurement": "LCK (1 g)", "setting": "[2]; [10]", "value": 1.8}, {"measurement": "Max BWL (%)", "setting": "[2]; [10]", "value": 2.5, "unit": "%"}, {"measurement": "Max TWI%", "setting": "[2]; s.c., qd × 5/w × 2w, 120 mg kg^−1, day 27", "value": "92 (27) %"}, {"measurement": "Tox/Tot", "setting": "[2]; [10]", "value": "0/5"}, {"measurement": "neurotoxicity", "setting": "[3]", "value": "no symptoms of neurotoxicity were evident"}, {"measurement": "reduction of cytotoxicity as compared to PTX", "setting": "human tumour cell lines", "value": "2–3 fold"}, {"measurement": "IC50", "setting": "A2780/DX cells", "value": 0.334, "unit": "µg/mL"}, {"measurement": "VEGF expression", "setting": "VEGF", "value": "downregulated"}, {"measurement": "IC50", "setting": "[4]; IGROV-1, 72 h treatment, cell counting, mean±s.d., three experiments", "value": "0.0615 ± 0.0045", "unit": "µg/mL"}, {"measurement": "IC80", "setting": "[4]; IGROV-1/Pt cells, read-out: IC80 (equitoxic concentration)", "value": 0.3, "unit": "µg/mL"}, {"measurement": "IC50", "setting": "[5]", "value": "0.023 ± 0.0004", "unit": "µg/mL"}, {"measurement": "IC50", "setting": "[6]", "value": "0.0345 ± 0.0078", "unit": "µg/mL"}, {"measurement": "LCK (1 g)", "setting": "[7]", "value": 2.2}, {"measurement": "Max BWL (%)", "setting": "[7]", "value": 13, "unit": "%"}, {"measurement": "TWI% (day 27)", "setting": "[7]", "value": 73, "unit": "%"}, {"measurement": "Tox/Tot", "setting": "[7]", "value": "0/4"}, {"measurement": "IC50", "setting": "GBM (human glioblastoma); 72 h treatment, Sulforhodamine B assay, mean±s.d., three experiments", "value": "0.0129 ± 0.0024", "unit": "µg/mL"}, {"measurement": "IC80", "setting": "GBM (human glioblastoma); GBM cells, read-out: IC80 (equitoxic concentration)", "value": 0.04, "unit": "µg/mL"}, {"measurement": "MTD", "setting": "in vivo", "value": 120, "unit": "mg/kg"}, {"measurement": "LCK (1 g)", "setting": "[8]; qd × 5/w × 2w, 180 mg kg^−1", "value": 1.9}, {"measurement": "Max BWL (%)", "setting": "[8]; qd × 5/w × 2w, 180 mg kg^−1", "value": 10, "unit": "%"}, {"measurement": "Tox/Tot", "setting": "[8]; qd × 5/w × 2w, 180 mg kg^−1", "value": "2/5"}, {"measurement": "TWI% (day 27)", "setting": "[8]; qd × 5/w × 2w, 180 mg kg^−1, P<0.05 vs 2 × 90 mg kg^−1", "value": "96% and 96 ^* %"}, {"measurement": "LCK (1 g)", "setting": "[8]; [11]", "value": 1.4}, {"measurement": "Max BWL (%)", "setting": "[8]; [11]", "value": 15, "unit": "%"}, {"measurement": "TWI% (day 27)", "setting": "[8]; [11]", "value": 87, "unit": "%"}, {"measurement": "Tox/Tot", "setting": "[8]; [11]", "value": "1/5"}, {"measurement": "LCK (1 g)", "setting": "[8]; qd × 5/w × 3w, 2 × 90 mg kg^−1", "value": 0.8}, {"measurement": "Max BWL (%)", "setting": "[8]; qd × 5/w × 3w, 2 × 90 mg kg^−1", "value": 9, "unit": "%"}, {"measurement": "TWI% (day 27)", "setting": "[8]; qd × 5/w × 3w, 2 × 90 mg kg^−1", "value": 66, "unit": "%"}, {"measurement": "Tox/Tot", "setting": "[8]; qd × 5/w × 3w, 2 × 90 mg kg^−1", "value": "0/6"}]}]}
